Laboratory results published in US11917959B2, “Multi-ear system to enhance monocot plant yield” (Monsanto Technology LLC, priority 2015, dated 2024).

Key:
Format in all cases: in vivo
[1] = test system: haploid maize populations; test: Doubling efficiency of four germplasms after co-dominant ear induction (Example 3); set-up: DE50: unit not given beside the values; details: 60 mL 2.5% PBZ at V7 or V8
Method: Two F1 hybrid-derived (one male and one female) haploid populations (referred to herein as H1 and H2) and two inbred-derived haploid lines (male Germplasm B and female Germplasm A) were tested in this experiment. Seven days after planting, several dozen seedlings from each group were removed from the soil and subjected to a bulk colchicine-based chromosome doubling treatment as described above. After the chromosome doubling treatment, seedlings were transplanted to soil and tended in a greenhouse at standard maize growing conditions. When the seedlings had reached approximately the V7 or V8 stage (approximately 29 days after doubling under the growing conditions used), the seedlings were subjected to co-dominant ear induction treatment comprising 60 mL of 2.5% PBZ added to the soil surrounding the base of each stem.
The seedlings were then tended in standard greenhouse maize growing conditions until they flowered, at which time each plant that produced pollen was self-pollinated and then left undisturbed to await fertilization and kernel production. After approximately 2-3 weeks, ears were harvested and the kernels that formed on them (DH1) were counted to determine doubling efficiencies.
Doubling efficiencies (DE) were calculated under the different constraints described in the previous example to generate values for DE04, DE20, DE30, and DE50 for each of the four genotypes. Furthermore, the above doubling efficiencies were calculated once by considering only the kernels that formed on the primary ear of each plant (Ear1), once by considering only the kernels that formed on the primary and secondary ear of each plant (Ear2), once by considering only the kernels that formed on the primary, secondary, and tertiary ear of each plant (Ear3), and finally by considering all the kernels that formed on all the ears of each plant (Earall).

[2] = test system: maize inbred lines Germplasm A and LH244; test: Co-dominant ear induction in diploid maize inbreds (Example 5); details: for Ave. Ears Per Plant / Ave. Total Kernels Per Plant: Treated
Method: Seeds of maize inbred lines Germplasm A and LH244 were planted in soil, germinated, and then transplanted to 10-inch pots after approximately one week, one seedling per pot. The plants were subjected to a co-dominant ear induction treatment at the V8 stage comprising drenching the soil surrounding the roots of each plant with 50 mL of a 2.5% PBZ solution (v/v; 0.4% of active ingredient). The plants were tended in a greenhouse until sexual maturity, then they were self-pollinated. When seed set had completed, the number of co-dominant ears, and the total number of kernels, produced by each plant were counted. Control plants for each germplasm were processed in the same way as the treated groups, except that the control plants were not subjected to the co-dominant ear induction treatment.

[3] = test system: diploid maize plants of a common inbred line; test: Tiller induction in diploid maize (Example 6)
Method: Diploid maize plants of a common inbred line were subjected to a tiller induction treatment comprising drenching the soil surrounding the roots with 100 mL of a 2.5% PBZ solution (v/v; 0.4% of active ingredient) approximately one week after germination and then allowed to grow to sexual maturity in 10-inch pots a greenhouse. A control group of plants were grown under identical circumstances except that they were not subjected to the tiller induction treatment.
Three treatment groups were then formed from the tillers: tillers of the “Co-hab” treatment were allowed to continue growing in the same pot with the mother plant; those of the “-Mother” treatment also remained in the same pot, but the mother plant was removed from the pot; and those of the “Transplanted” treatment group were transplanted from the pot containing the mother plant into separate 10-inch pots, one plant per pot. Any naturally-occurring tillers produced by the control group were allowed to grow in the same pot as the mother plant, similar to the co-hab treatment. All plants were allowed to grow to sexual maturity and self-pollinated when silks and tassels formed. When seed set was complete, the average total number of seeds produced by all plants deriving from the same mother plant seed were counted and plotted in FIG. 3.

haploid mother plant = test: Tiller induction in doubled haploid maize (Example 7)
Method: A haploid mother plant will be subjected to doubling treatment and thereafter planted in a pot, the soil surrounding the roots drenched with 100 mL of 2.5% of paclobutrazol, and then tended standard maize greenhouse growing conditions for several days. […] One of the resulting daughter tiller plants can be separated from the mother plant, transplanted into a separate pot, and grown via standard greenhouse management procedures to eventually recover a daughter plant with normal haploid morphology.

[4] = Germplasm A, 50 mL 2.5% PBZ at V8

With `CC(C)(C)[C@@H](O)[C@@H](Cc1ccc(Cl)cc1)n1cncn1` (relative stereo) [PBZ, (±)-(R*, R*)-beta-((4-chlorophenyl)methyl)-alpha-(1,1,-dimethylethyl)-1H-1,2,4,-triazole-1-ethanol] the DE04 ([1]; Ear1, Control A) was 72.9, the DE20 ([1]; Ear1, Control A) was 60.7 and the DE30 ([1]; Ear1, Control A) was 48.6. For the same molecule, the DE50 ([1]; Ear1, Control A) was 48.6, the DE04 ([1]; Ear1, Control B) was 64.8 and the DE20 ([1]; Ear1, Control B) was 44.5. For the same molecule, the DE30 ([1]; Ear1, Control B) was 40.5, the DE50 ([1]; Ear1, Control B) was 32.4 and the DE04 ([1]; Ear1, Germplasm A) was 64.6. It also gave a DE20 ([1]; Ear1, Germplasm A) of 37.4, a DE30 ([1]; Ear1, Germplasm A) of 30.6 and a DE50 ([1]; Ear1, Germplasm A) of 23.8. For the same molecule, the DE04 ([1]; Ear1, Germplasm B) was 56.7, the DE20 ([1]; Ear1, Germplasm B) was 40.5 and the DE30 ([1]; Ear1, Germplasm B) was 40.5. The DE50 ([1]; Ear1, Germplasm B) was 40.5, the DE04 ([1]; Earall, Control A) was 81 and the DE20 ([1]; Earall, Control A) was 76.9. For the same molecule, the DE30 ([1]; Earall, Control A) was 76.9, the DE50 ([1]; Earall, Control A) was 64.8 and the DE04 ([1]; Earall, Control B) was 68.8. The DE20 ([1]; Earall, Control B) was 56.7, the DE30 ([1]; Earall, Control B) was 56.7 and the DE50 ([1]; Earall, Control B) was 44.5. For the same molecule, the DE04 ([1]; Earall, Germplasm A) was 81.6, the DE20 ([1]; Earall, Germplasm A) was 71.4 and the DE30 ([1]; Earall, Germplasm A) was 71.4. It also gave a DE50 ([1]; Earall, Germplasm A) of 64.6, a DE04 ([1]; Earall, Germplasm B) of 68.8 and a DE20 ([1]; Earall, Germplasm B) of 48.6. For the same molecule, the DE30 ([1]; Earall, Germplasm B) was 44.5, the DE50 ([1]; Earall, Germplasm B) was 44.5 and the “Ave. Ears Per Plant” value [2, 4] was 8. The “Ave. Total Kernels Per Plant” value [2, 4] was 1677, the “Ave. Ears Per Plant” value ([2]; LH244, 50 mL 2.5% PBZ at V8) was 5.1 and the “Ave. Total Kernels Per Plant” value ([2]; LH244, 50 mL 2.5% PBZ at V8) was 1126. The “average total kernels per plant and average ears per plant, treated vs control” value ([2]; both germplasms) was “more than doubling”, the “effect on mother plants” value ([3]; 100 mL 2.5% PBZ soil drench) was “shortened internodes, and induced the mother plants to produce tillers” and the “number of seeds vs control group” value ([3]; transplanted treatment group, 100 mL 2.5% PBZ one week after germination) was “more than twice”. For the same molecule, the “DH1 seeds yielded by transplanted daughter tiller plant when selfed” value (haploid mother plant; 100 mL of 2.5% paclobutrazol) was “several dozen” and the “effect on mother plant” value (haploid mother plant; 100 mL of 2.5% paclobutrazol soil drench after doubling treatment) was “shortened internodes and increased tiller production”.
